In patent US9320276B2, “N-hetarylmethyl pyrazolylcarboxamides” (BAYER INTELLECTUAL PROPERTY GMBH, priority 2010, dated 2016) one finds Efficacy and logP data, which are given here for 36 compounds.

By logP is commonly meant a log measure of how a compound divides between an organic and an aqueous phase. High values mean a more lipophilic compound, low ones a more hydrophilic compound.

Molecules are shown by their SMILES.

One series concerns Pyrenophora teres. In words: in vivo preventive test on Pyrenophora teres (barley). Conditions: 500 ppm of active ingredient, evaluated 7-9 days after inoculation. How it is done:
Solvent: 49 parts by weight of N,N-dimethylformamide Emulsifier: 1 part by weight of alkylaryl polyglycol ether To produce a suitable preparation of active compound, 1 part by weight of active compound is mixed with the stated amounts of solvent and emulsifier, and the concentrate is diluted with water to the desired concentration. To test for preventive activity, young plants are sprayed with the preparation of active compound at the stated rate of application. One day after this treatment, the plants are inoculated with an aqueous spore suspension of Pyrenophora teres. The plants remain for 48 hours in an incubation cabinet at 22° C. and a relative atmospheric humidity of 100%. Then the plants are placed in a greenhouse at a temperature of approximately 20° C. and a relative atmospheric humidity of approximately 80%. The test is evaluated 7-9 days after the inoculation. 0% means an efficacy which corresponds to that of the untreated control while an efficacy of 100% means that no disease is observed.

The next series relates to Alternaria solani. In words: in vivo preventive test on Alternaria solani (tomato). Conditions: 500 ppm of active ingredient, evaluated 7 days after inoculation. The method, then: Solvent: 49 parts by weight of N,N-dimethylformamide Emulsifier: 1 part by weight of Alkylarylpolyglycolether To produce a suitable preparation of active compound, 1 part by weight of active compound is mixed with the stated amounts of solvent and emulsifier, and the concentrate is diluted with water to the desired concentration. To test for preventive activity, young plants are sprayed with the preparation of active compound at the stated rate of application. One day after this treatment, the plants are inoculated with an aqueous spore suspension of Alternaria solani. The plants remain for one day in an incubation cabinet at approximately 22° C. and a relative atmospheric humidity of 100%. Then the plants are placed in an incubation cabinet at approximately 20° C. and a relative atmospheric humidity of 96%. The test is evaluated 7 days after the inoculation. 0% means an efficacy which corresponds to that of the untreated control while an efficacy of 100% means that no disease is observed.

Series [1] can be described thus: logP by HPLC on reversed-phase column (EEC Directive 79/831 Annex V.A8). Format: physicochemical. Conditions: 40° C., 0.1% aqueous formic acid and acetonitrile, linear gradient 10% to 90% acetonitrile. How it is done: In table 1, the logP values were determined in accordance with EEC Directive 79/831 Annex V.A8 by HPLC (High Performance Liquid Chromatography) on a reversed-phase column (C 18), using the method described below: Temperature: 40° C.; Mobile phases: 0.1% aqueous formic acid and acetonitrile; linear gradient from 10% acetonitrile to 90% acetonitrile. Calibration was carried out using unbranched alkan-2-ones (comprising 3 to 16 carbon atoms) with known logP values (determination of the logP values by the retention times using linear interpolation between two successive alkanones). lambda-max-values were determined using UV-spectra from 200 nm to 400 nm and the peak values of the chromatographic signals.

Where [2] appears, read: HPLC on reversed-phase column (C 18).

As for `CC(NC(=O)c1c(C(F)F)nn(C)c1Cl)c1cc2ccccc2s1` (racemic) [Example 81], the Efficacy turned out to be 90% in the series with Pyrenophora teres and 100% in the series with Alternaria solani. This compound also came in with a lipophilicity (logP) in series [1] (setting [2]) of 3.13.
Take `CC(NC(=O)c1c(C(F)F)nn(C)c1F)c1cc2ccccc2s1` (racemic) [Example 82]: the Efficacy in the series on Pyrenophora teres amounted to 90%; in the series with Alternaria solani it was 100%. Moreover, the logP in series [1] (setting [2]) is on record as 2.98.
For the compound `CC(c1csc2ccccc12)N(C(=S)c1c(C(F)F)nn(C)c1F)C1CC1` (racemic) [Example 86], the figures for the Efficacy in the series with Pyrenophora teres and in the series on Alternaria solani were 100% and 70%, respectively. Further, in series [1] (setting [2]), the logP was found to be 4.44.
Take `Cn1nc(C(F)F)c(C(=O)N(Cc2ccco2)C2CC2)c1F` [Example 5]: the Efficacy in the series on Pyrenophora teres was determined as 95%; with Alternaria solani it was 80%. In series [1] (setting [2]), this compound registered a logP of 2.32.
`CCN(Cc1nonc1C)C(=O)c1c(C(F)F)nn(C)c1F` [Example 28] returned an Efficacy with Alternaria solani of 90%. This compound also registered a logP in series [1] (setting [2]) of 2.05.
On the same counts, the results for `Cc1ccsc1CN(C(=O)c1c(C(F)F)nn(C)c1Cl)C1CCCC1` [Example 37] are 80% and 3.61.
For `Cc1ccsc1CN(C(=O)c1c(C(F)F)nn(C)c1Cl)C1CC1` [Example 39], the results for the Efficacy in the series on Pyrenophora teres and in the series on Alternaria solani were 100% and 95%, respectively. Besides, the logP in series [1] (setting [2]) turned out to be 3.02.
Regarding `Cc1ccsc1CN(C)C(=O)c1c(C(F)F)nn(C)c1F` [Example 42], the Efficacy in the series with Alternaria solani worked out at 70%. The compound further came in with a logP in series [1] (setting [2]) of 2.44.
Take `Cc1cc(C(C)N(C(=O)c2c(C(F)F)nn(C)c2Cl)C2CC2)c(C)s1` (stereo not shown) [Example 49]: the Efficacy is on record as 95% with Pyrenophora teres and 80% in the series with Alternaria solani. Besides, the logP in series [1] (setting [2]) stood at 3.79.
On to `Cn1nc(C(F)F)c(C(=O)N(Cc2ccc(Cl)nc2)C2CC2)c1F` [Example 67], for which the Efficacy in the series with Pyrenophora teres is listed as 90%; in the series with Alternaria solani, 95%. In series [1] (setting [2]), this compound returned a log partition coefficient (logP) of 2.25.
As for `Cn1nc(C(F)F)c(C(=O)NC2(c3cc4ccccc4o3)CCCC2)c1F` [Example 75], the Efficacy is reported as 89% in the series with Pyrenophora teres and 70% with Alternaria solani. Also, the logP in series [1] (setting [2]) was found to be 3.52.
In the series on Alternaria solani, `Cn1nc(C(F)F)c(C(=O)NCc2cc3ccccc3s2)c1Cl` [Example 83] returned an Efficacy of 94%. The same compound came in with a log partition coefficient (logP) in series [1] (setting [2]) of 2.92.
The corresponding values for `Cn1nc(C(F)F)c(C(=O)NCc2csc3ccccc23)c1F` [Example 88] are 78% and 2.73.
On to `Cn1nc(C(F)F)c(C(=O)N(Cc2csc3ccccc23)C2CC2)c1Cl` [Example 89], for which the Efficacy came out at 95% in the series on Pyrenophora teres and 80% in the series on Alternaria solani. For the same compound, in series [1] (setting [2]), the logP was determined as 3.41.
Regarding `Cn1nc(C(F)F)c(C(=O)N(Cc2cccc3ccsc23)C2CC2)c1Cl` [Example 94], the Efficacy in the series on Pyrenophora teres and in the series on Alternaria solani was 95% in each case. Moreover, the logP in series [1] (setting [2]) stood at 3.31.
Take `Cn1nc(C(F)F)c(C(=O)N(Cc2nc3ccccc3s2)C2CC2)c1F` [Example 98]: the results for the Efficacy in the series on Pyrenophora teres and in the series with Alternaria solani were 100% and 80%, respectively. In series [1] (setting [2]), this compound yielded a logP of 2.68.
In the case of `CN(Cc1ccc2nsnc2c1)C(=O)c1c(C(F)F)nn(C)c1F` [Example 100], the Efficacy with Alternaria solani is given as 95%. Also, the lipophilicity (logP) in series [1] (setting [2]) was 2.17.
For `Cn1nc(C(F)F)c(C(=O)NC2CCCc3sccc32)c1Cl` (stereo not shown) [Example 103], the Efficacy in the series with Alternaria solani is reported as 94%. The compound also gave a logP in series [1] (setting [2]) of 2.90.
On the same counts, the results for `Cn1nc(C(F)F)c(C(=O)NC2CCCc3sccc32)c1F` (stereo not shown) [Example 104] are 94% and 2.73.
As to `CN(Cc1cc(CC(C)(C)C)no1)C(=O)c1c(C(F)F)nn(C)c1F` [Example 105], the Efficacy with Pyrenophora teres was 100%; with Alternaria solani it was 95%. In series [1] (setting [2]), this compound had a logP of 2.75.
`Cn1nc(C(F)F)c(C(=O)N(Cc2cc(CC(C)(C)C)no2)C2CC2)c1F` [Example 106]: the Efficacy in the series with Pyrenophora teres is 100%; with Alternaria solani it was 95%. Also, the logP in series [1] (setting [2]) is 3.17.
`CN(Cc1cnn(-c2ccccc2)c1)C(=O)c1c(C(F)F)nn(C)c1Cl` [Example 108] showed an Efficacy in the series with Alternaria solani of 90%. The same compound displayed a logP in series [1] (setting [2]) of 2.40.
On to `CN(Cc1cnn(-c2ccccc2)c1)C(=O)c1c(C(F)F)nn(C)c1F` [Example 109], for which the Efficacy in the series with Pyrenophora teres is 100%; with Alternaria solani it was 95%. The compound also showed a logP in series [1] (setting [2]) of 2.26.
As to `Cn1nc(C(F)F)c(C(=O)N(Cc2cc(-c3ccccc3)no2)C2CC2)c1F` [Example 111], the Efficacy came out at 100% in the series with Pyrenophora teres and 95% in the series with Alternaria solani. The compound also gave a logP in series [1] (setting [2]) of 2.92.
In the case of `CN(Cc1nc(-c2ccccc2)no1)C(=O)c1c(C(F)F)nn(C)c1F` [Example 114], the Efficacy in the series on Pyrenophora teres and in the series on Alternaria solani was 95% in each case. In series [1] (setting [2]), this compound showed a lipophilicity (logP) of 2.58.
For `Cn1nc(C(F)F)c(C(=O)N(Cc2c(Cl)cncc2Cl)C2CC2)c1Cl` [Example 116], the results for the Efficacy with Pyrenophora teres and in the series with Alternaria solani were 95% and 90%, respectively. In series [1] (setting [2]), this compound had a logP of 2.64.
On to `Cn1nc(C(F)F)c(C(=O)N(Cc2cnc(Cl)cc2Cl)C2CC2)c1F` [Example 118], for which the Efficacy is listed as 100% in the series on Pyrenophora teres and 95% in the series on Alternaria solani. Besides, the logP in series [1] (setting [2]) worked out at 2.73.
For the compound `CC(c1cnc(Cl)c(Cl)c1)N(C(=O)c1c(C(F)F)nn(C)c1Cl)C1CC1` (stereo not shown) [Example 120], the values for the Efficacy in the series with Pyrenophora teres and in the series on Alternaria solani were 100% and 90%, respectively. The logP in series [1] (setting [2]) is recorded as 3.27.
For `CC(c1cnc(Cl)c(Cl)c1)N(C(=O)c1c(C(F)F)nn(C)c1F)C1CC1` (stereo not shown) [Example 121], the results for the Efficacy in the series on Pyrenophora teres and in the series on Alternaria solani were 100% and 95%, respectively. In series [1] (setting [2]), this compound had a log partition coefficient (logP) of 3.11.
The corresponding values for `CC(c1cc(Cl)sc1Cl)N(C(=O)c1c(C(F)F)nn(C)c1Cl)C1CC1` (stereo not shown) [Example 127] are 95%, 95% and 4.24.
As for `CN(Cc1cscc1Br)C(=O)c1c(C(F)F)nn(C)c1F` [Example 133], the Efficacy in the series on Pyrenophora teres came out at 90%; in the series with Alternaria solani, 70%. In addition, the logP in series [1] (setting [2]) is given as 2.52.
As to `CN(Cc1sc2ccccc2c1Cl)C(=O)c1c(C(F)F)nn(C)c1F` [Example 142], the Efficacy in the series on Pyrenophora teres worked out at 100%; with Alternaria solani, 80%. The compound further showed a logP in series [1] (setting [2]) of 3.48.
For `Cc1nc(-c2ccccc2)sc1CN(C)C(=O)c1c(C(F)F)nn(C)c1F` [Example 149], the Efficacy in the series on Pyrenophora teres and in the series on Alternaria solani was 80% each time. Also, in series [1] (setting [2]), the lipophilicity (logP) was found to be 2.77.
Take `Cn1nc(C(F)F)c(C(=O)N(Cc2cc(-c3ccc(Cl)cc3)no2)C2CC2)c1F` [Example 153]: the results for the Efficacy with Pyrenophora teres and with Alternaria solani were 100% and 90%, respectively. The same compound had a lipophilicity (logP) in series [1] (setting [2]) of 3.46.
In the series with Pyrenophora teres, `CN(Cc1cc(-c2cc(F)c(F)c(F)c2)no1)C(=O)c1c(C(F)F)nn(C)c1F` [Example 164] yielded an Efficacy of 100%. In series [1] (setting [2]), this compound had a logP of 3.11.
Compound `Cn1nc(C(F)F)c(C(=O)N(Cc2cc(-c3cc(F)c(F)c(F)c3)no2)C2CC2)c1Cl` [Example 166] had an Efficacy in the series with Pyrenophora teres of 90%. The logP in series [1] (HPLC, reversed-phase column (C 18)) came out at 3.64.
